According to US9901592B2 (priority 2008, dated 2018):
Values after ≈ are worked out from the molar mass of the structure shown. Values joined by “and” are separate entries in the source; they are usually repeats but may differ in a detail not shown here. Equal values may be shown once. Read-outs that look alike come from different tables or passages of the source. Marks after values point to notes of the source that are not given here.

Tests used:
M. hominis = format: cell-based; conditions: M. hominis (13 isolates)
S. pneumoniae = assay: microbe, parasite or virus in culture; format: cell-based
M. pneumoniae = assay: microbe, parasite or virus in culture; format: cell-based
M. genitalium = format: cell-based; conditions: M. genitalium (5 isolates)
U. parvum = assay: MIC testing in 10B broth (colour change); format: cell-based, Ureaplasma parvum; conditions: Ureaplasma parvum, U. parvum (10 isolates)
M. fermentans = format: cell-based; conditions: M. fermentans (15 isolates)
U. urealyticum = assay: MIC testing in 10B broth (colour change); format: cell-based; conditions: Ureaplasma urealyticum; U. urealyticum (10 isolates)
streptococci = assay: organism not typed; format: cell-based
N. meningitidis = assay: MIC, CLSI broth microdilution, invasive isolates; format: cell-based; conditions: for % Susc. / % Res.: CLSI (M100-S19, 2009) criteria; for MIC / MIC50 / MIC90: Neisseria meningitidis
Method: Example. […] Colonization of the nasopharynx (NP) by NM can lead to invasive meningococcal disease. Chemoprophylaxis is used to eradicate NP colonization and prevent transmission to nonimmune contacts. […] 62 isolates (91.9% blood culture) of NM were collected from 29 medical centers in North and South America and Europe (1997-2008). […] Serological identification was performed for serogroups (SGs) B, C, Y and W135.

pneumococci = assay: microbe, parasite or virus in culture; format: cell-based, S. pneumoniae
group A streptococci = assay: microbe, parasite or virus in culture; format: cell-based, S. pyogenes
Legionella pneumophila = assay: microbe, parasite or virus in culture; format: cell-based, L. pneumophila
Mycobacterium bovis BCG = format: cell-based
M. catarrhalis = assay: microbe, parasite or virus in culture; format: cell-based
[1] = Streptococcus pneumoniae, pneumococci, L4 mutations (27)

## CC(=O)NC[C@H]1CN(c2ccc(N3CCOCC3)c(F)c2)C(=O)O1 [Linezolid, linezolid]
M. hominis
  MIC Range: 1 to 8 mg/L
M. hominis; Metamycoplasma hominis, read-out: MIC50
  MIC50: 2 mg/L (≈ 5.93 µM)
M. hominis; Metamycoplasma hominis, read-out: MIC90
  MIC90: 4 mg/L (≈ 11.9 µM)
S. pneumoniae; Streptococcus pneumoniae
  MIC90: 2 mg/L (≈ 5.93 µM)
M. pneumoniae
  MIC Range: 32 to 128 mg/L
M. pneumoniae; Mycoplasmoides pneumoniae
  MIC50: 64 mg/L (≈ 190 µM)
  MIC90: 128 mg/L (≈ 379 µM)
M. genitalium
  MIC Range: 4 to 128 mg/L
U. parvum; read-out: MIC50
  MIC50: > 256 mg/L
U. parvum; read-out: MIC90
  MIC90: > 256 mg/L
M. fermentans
  MIC Range: 0.5 to 4 mg/L
M. fermentans; Mycoplasmopsis fermentans
  MIC50: 1 mg/L (≈ 2.96 µM)
  MIC90: 4 mg/L (≈ 11.9 µM)
U. urealyticum
  MIC50: > 256 mg/L
  MIC90: > 256 mg/L
streptococci
  MIC50: 1 mg/L (≈ 2.96 µM)
  MIC90: 2 mg/L (≈ 5.93 µM)
  MIC 90%: 1 mg/L (≈ 2.96 µM)
  MIC Range: 0.25 to 2 mg/L and 0.5 to 2 mg/L

## CN(C)c1ccc(O)c2c1C[C@H]1C[C@H]3[C@H](N(C)C)C(O)=C(C(N)=O)C(=O)[C@@]3(O)C(O)=C1C2=O [Minocycline]
N. meningitidis
  % Susc.: 100.0%
N. meningitidis; 62 N. meningitidis isolates
  MIC: 0.008 to 0.25 mg/L (≈ 0.0175 to 0.546 µM)
  MIC50: 0.12 mg/L (≈ 0.262 µM)
  MIC90: 0.12 mg/L (≈ 0.262 µM)

## COc1c(N2C[C@@H]3CCCN[C@@H]3C2)c(F)cc2c(=O)c(C(=O)O)cn(C3CC3)c12 [Moxi]
pneumococci
  MIC50: 0.25 mg/L (≈ 0.623 µM)
  MIC Range: 0.125 to 4 mg/L
  MIC range: 0.125 to 8 mg/L
Group A streptococci
  MIC50: 0.25 mg/L (≈ 0.623 µM)
  MIC90: 0.25 mg/L (≈ 0.623 µM)
  MIC Range: 0.125 to 0.25 mg/L and 0.125 to 0.5 mg/L

## CC1(C)S[C@@H]2[C@H](NC(=O)Cc3ccccc3)C(=O)N2[C@H]1C(=O)O [Pen G]
pneumococci
  MIC50: 1 mg/L (≈ 2.99 µM)
  MIC90: 2 mg/L and 4 mg/L
  MIC range: 0.015 to 8 mg/L
Group A streptococci
  MIC50: 0.015 mg/L (≈ 0.0449 µM)
  MIC90: 0.015 mg/L and 0.03 mg/L
  MIC Range: <0.008 to 0.125 mg/L and 0.008 to 0.015 mg/L and <0.008 to 0.015 mg/L and 0.015 mg/L

## CC1(C)S[C@@H]2[C@H](NC(=O)Cc3ccccc3)C(=O)N2[C@H]1C(=O)O [Penicillin G]
pneumococci; pneumococci, L4 mutations (27)
  MIC50: 4 mg/L (≈ 12 µM)
  MIC90: 16 mg/L (≈ 47.8 µM)
Group A streptococci
  MIC50: 0.015 mg/L (≈ 0.0449 µM)
  MIC90: 0.015 mg/L and 0.03 mg/L

## CO[C@H]1/C=C/O[C@@]2(C)Oc3c(C)c(O)c4c(O)c(c(/C=N/N5CCN(C)CC5)c(O)c4c3C2=O)NC(=O)/C(C)=C\C=C\[C@H](C)[C@H](O)[C@@H](C)[C@@H](O)[C@@H](C)[C@H](OC(C)=O)[C@@H]1C [Rifampin]
Legionella pneumophila; LPN (30)
  MIC Range: 0.03-0.06^a μg/ml
Legionella pneumophila; Legionella pneumophila
  MIC50: 0.03 mg/L (≈ 0.0365 µM)
  MIC90: 0.03 mg/L (≈ 0.0365 µM)
N. meningitidis
  % Res.: 0.0%
  % Susc.: 100.0%
N. meningitidis; 62 N. meningitidis isolates
  MIC: 0.008 to 0.12 mg/L (≈ 0.00972 to 0.146 µM)
  MIC50: 0.015 mg/L (≈ 0.0182 µM)
  MIC90: 0.06 mg/L (≈ 0.0729 µM)
Mycobacterium bovis BCG; DETA-NO-induced growth arrest
  reduction of lethality by growth arrest: no effect

## COc1c(N2C[C@@H]3CCCN[C@@H]3C2)c(F)cc2c(=O)c(C(=O)O)cn(C3CC3)c12 [moxifloxacin]
pneumococci; [1]
  MIC50: 0.25 mg/L (≈ 0.623 µM)
  MIC90: 0.5 mg/L (≈ 1.25 µM)
pneumococci; Streptococcus pneumoniae, read-out: MIC range, pneumococci, L4 mutations (27)
  MIC: 0.125 to 4 mg/L (≈ 0.311 to 9.96 µM)
Group A streptococci; Streptococcus pyogenes
  MIC50: 0.25 mg/L (≈ 0.623 µM)
  MIC90: 0.25 mg/L (≈ 0.623 µM)
Mycobacterium bovis BCG; growth-arrested cells
  activity during growth arrest relative to gatifloxacin: 2 fold

## Amoxicillin Clavulanate
pneumococci; pneumococci, L4 mutations (27)
  MIC50: 4 mg/L
  MIC90: 8 mg/L

## amoxicillin/clavulanate
S. pneumoniae
  nonsusceptibility: 88.9%
pneumococci
  MIC Range: 0.015 to 16 mg/L
pneumococci; pneumococci, L4 mutations (27)
  MIC50: 4 mg/L
  MIC90: 8 mg/L
  MIC range: 0.125 to 8 mg/L
Group A streptococci
  MIC50: 0.03 mg/L and <0.015 mg/L and 0.015 mg/L
  MIC90: 0.03 mg/L and 0.06 mg/L
  MIC Range: 0.015 to 0.03 mg/L and 0.03 mg/L

## quinupristin/dalfopristin [Q/D]
S. pneumoniae
  MIC 90%: 1 mg/L
  susceptible: 100.0%
M. catarrhalis
  MIC 90%: 0.5 mg/L
streptococci
  MIC 50%: 0.5 mg/L
  MIC 90%: 0.5 mg/L and 1 mg/L

## trimethoprim/sulfamethoxazole [TMP/SMX]
S. pneumoniae
  nonsusceptibility: 100.0%
N. meningitidis; 62 N. meningitidis isolates
  MIC 50%: 0.5 mg/L
  MIC 90%: 2 mg/L
  MIC Range: ≦0.06-4 μg/ml
N. meningitidis
  % Res.: 59.7%
  % Susc.: 37.1%
